Literature values in patent publication US20030170318A1, “Fluoride compositions and uses thereof” (priority 2000, published 2003).

What was measured:
[1] = system: Ras/RasGAP complex; settings: fluoride salt added to mixed Ras and GAP; free fluoride needed in solution
[2] = system: osteosarcoma cell line UMR 106; settings: 0.5 mM fluoride, UMR 106 cultures
[3] = system: human leukemia (HL-60) cells
[4] = system: Drosophila; settings: mutation induced by Trenimon and 1-phenyl-3,3-dimethyltriazene
[5] = children
[6] = system: normal cells; settings: pre, simultaneous and post-treatments; Trenimon-induced chromosomal aberrations
[7] = system: mutant RhoGAP; settings: arginine to alanine mutant, in the presence of aluminum fluoride

In the case of [Be+2].[F-].[F-] [beryllium fluoride, reference compound], the Ras/RasGAP complex formation [1] is given as “readily formed”.

For F [fluoride], the apoptosis [2] is given as “induction of apoptosis”, the cell proliferation [2] is given as “decrease in cell proliferation” and the cell death [3] is given as “causes cell death”. For the same molecule, the “caspase-3 activation leading to apoptosis” value ([3]; cleaves poly(ADP-ribose) polymerase) was “activation of caspase-3”, the antimutagenic effect [4] was “strong antimutagenic effect” and the “toxic blood plasma fluoride level” value was “about 15 μM”. The “fluoride retained of all fluoride consumed” value [5] was “twenty”.

For [F-].[F-].[Mg+2] [magnesium fluoride], the Ras/RasGAP complex formation [1] is given as “readily formed”.

In the case of [F-].[Na+] [sodium fluoride], the “frequency of undamaged mitosis” value [6] is listed as “significantly enhanced”.

In the case of aluminum fluoride, the Ras/RasGAP complex formation [1] is given as “readily formed” and the “hydrolysis of RhoGTP to RhoGDP by mutant RhoGAP” value [7] is given as “as effective as normal RhoGAP”.
